Numbering of substitutions follows the chain as printed. “Also recorded” adds a separate entry of the source.
What was measured:
PPARα [1] = biological target: T1, PPARα (UniProt Q4PNY3); assay: PPAR receptor transactivation assay, monkey PPARα; assay type: cell-based
T1 construct: This is inferred from the cell pool name 'UAS-bla-Gal4' and from the general description in b82 and b85
T1 sequence (Q4PNY3 1-467): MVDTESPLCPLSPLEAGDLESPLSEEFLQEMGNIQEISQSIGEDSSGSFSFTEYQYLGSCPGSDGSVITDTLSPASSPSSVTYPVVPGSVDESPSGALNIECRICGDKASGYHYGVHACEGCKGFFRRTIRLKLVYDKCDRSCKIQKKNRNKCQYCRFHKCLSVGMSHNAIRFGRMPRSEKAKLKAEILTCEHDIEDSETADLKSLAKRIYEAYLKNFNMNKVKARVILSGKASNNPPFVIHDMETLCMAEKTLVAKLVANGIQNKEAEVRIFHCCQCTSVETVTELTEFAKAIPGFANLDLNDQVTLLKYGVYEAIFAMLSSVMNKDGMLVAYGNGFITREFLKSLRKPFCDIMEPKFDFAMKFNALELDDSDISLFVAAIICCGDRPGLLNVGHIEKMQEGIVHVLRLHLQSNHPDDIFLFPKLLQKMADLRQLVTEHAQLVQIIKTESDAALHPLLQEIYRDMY

PPARγ = biological target: T2, PPARγ (Mus musculus, UniProt P37238); assay: PPAR receptor transactivation assay, mouse PPARγ; assay type: cell-based
T2 construct: expressed in transfected cells; host or cells: Jump-In GripTite HEK293
T2 sequence (P37238 238-503 limits assumed): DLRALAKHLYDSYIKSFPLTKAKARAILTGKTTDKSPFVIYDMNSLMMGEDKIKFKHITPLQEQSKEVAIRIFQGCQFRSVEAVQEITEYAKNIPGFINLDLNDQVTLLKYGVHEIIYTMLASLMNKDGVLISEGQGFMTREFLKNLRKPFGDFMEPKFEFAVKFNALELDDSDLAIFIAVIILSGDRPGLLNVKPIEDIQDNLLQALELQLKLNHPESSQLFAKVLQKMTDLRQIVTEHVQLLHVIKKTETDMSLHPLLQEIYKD

[2] = test system: human retinoid X receptor (hRXR); assay: human retinoid X receptor activity; assay type: cell-based
hPPARγ = biological target: T3, hPPARγ (Homo sapiens, UniProt P37231); assay: PPAR receptor transactivation assay, human PPARγ; assay type: cell-based
T3 construct: expressed in transfected cells; host or cells: Jump-In GripTite HEK293
T3 sequence (P37231 238-503 limits assumed): T2 sequence (P37238 238-503 limits assumed) with N93S, I98V, N146S, V226L, H245Q
Protocol: Compound 1 was tested on all three human PPAR subtypes (hPPAR): hPPARα, hPPARγ, and hPPARδ. All assays were repeated at least three times for each subtype.
The genes of interest were synthesized and cloned into an appropriate Jump-In™ retargeting vector following the User Guide of the Jump-In™ T-REx™ HEK293 Retargeting Kit (ThermoFisher Catalog No A15008). For example, the vector will be used to transfect and retarget the Jump-In™ HEK293 GripTite™ parental cell line. Stable pools will be antibiotic-selected for about 21 days and tested for target gene expression by functional assay.
Jump-In™ GripTite™ HEK293 parental cells were plated at 60-80% confluency in a T-75 flask in growth medium without antibiotics and transfected with a 1:1 ratio of expression construct and R4 integrase expression construct (20 μg DNA total) using Lipofectamine® LTX (50 μL) and PLUS™ Reagent (20 μL). Following a 48 hours incubation, cells were selected with 600 μg/mL Geneticin® and 10 μg/mL Blasticidin for ˜21 days in growth medium.
Jump-In™ GripTite™ HEK293 rPPAR Alpha, Delta or Gamma UAS-bla-Gal4 cell pools were plated in a 384-well plate format (20,000 cells per well) in OptiMeM without FBS in replicates (n=4). Cells were allowed to adhere for 8 hours before addition of Compound 1 (1 mM top concentration, 3-fold dilutions, 10-point titration). After 16 hours, the cells were loaded with LiveBLAzer®, a fluorescent BLA substrate that gives a blue/green readout of expressing/non-expressing cells, respectively. The blue/green readout was measured on a fluorescent plate reader (Tecan Safire II).

FXR = biological target: T4, FXR (Homo sapiens, UniProt Q96RI1); assay: nuclear receptor FXR activity; assay type: cell-based
T4 sequence (Q96RI1 1-486): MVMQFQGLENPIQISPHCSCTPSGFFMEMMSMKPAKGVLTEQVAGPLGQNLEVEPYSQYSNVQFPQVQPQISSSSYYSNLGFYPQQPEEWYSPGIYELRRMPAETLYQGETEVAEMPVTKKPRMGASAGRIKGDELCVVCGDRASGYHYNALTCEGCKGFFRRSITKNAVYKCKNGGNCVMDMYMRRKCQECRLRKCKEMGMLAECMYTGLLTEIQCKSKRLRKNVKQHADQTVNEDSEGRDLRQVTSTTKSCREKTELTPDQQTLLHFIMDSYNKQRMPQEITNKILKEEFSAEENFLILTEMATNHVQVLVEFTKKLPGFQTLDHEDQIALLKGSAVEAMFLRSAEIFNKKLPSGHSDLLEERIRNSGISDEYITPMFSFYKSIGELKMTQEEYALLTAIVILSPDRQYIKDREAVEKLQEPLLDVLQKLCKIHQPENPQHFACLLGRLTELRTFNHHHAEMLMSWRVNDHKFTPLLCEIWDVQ

PPARα [3] = biological target: T5, PPARα (Mus musculus, UniProt P23204); assay: PPAR receptor transactivation assay, mouse PPARα; assay type: cell-based
T5 construct: expressed in transfected cells; host or cells: Jump-In GripTite HEK293
T5 sequence (P23204 239-466 limits assumed): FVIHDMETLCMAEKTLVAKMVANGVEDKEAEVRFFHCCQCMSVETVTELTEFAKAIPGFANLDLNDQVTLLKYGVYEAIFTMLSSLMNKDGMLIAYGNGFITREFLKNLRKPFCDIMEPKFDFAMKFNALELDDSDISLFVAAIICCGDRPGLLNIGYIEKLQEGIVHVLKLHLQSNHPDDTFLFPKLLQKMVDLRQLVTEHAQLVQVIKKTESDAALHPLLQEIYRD

[4] = test system: primary mitochondrial myopathy patients; assay: clinical trial for primary mitochondrial myopathy (PMM); assay type: in vivo, human
[5] = PMM patients, 100 mg once daily for 12 weeks

SMILES: Cc1cc(OC/C=C(/c2ccc(F)cc2)c2ccc(C#CCN3CCOCC3)cc2)ccc1OCC(=O)O [Compound 1, (E)-[4-[3-(4-Fluorophenyl)-3-[4-[3-(morpholin-4-yl)propynyl]phenyl]allyloxy]-2-methyl-phenoxy]acetic acid]
- EC50 (PPARα [1]): > 1000 nM
- EC50 (PPARγ): > 10000 nM
- hRXR activity [2]: did not show any
- EC50 (hPPARγ; Human PPARγ): > 10000 nM
- activity on PPARγ in transactivation assays (hPPARγ; in some cases): negligible activity
- agonist type at PPARγ (hPPARγ; in some cases): partial agonist
- activity on the nuclear receptor FXR (FXR): did not show any
- EC50 (PPARα [3]): > 10000 nM
- Modified Fatigue Impact Scale scores [4, 5]: trends towards increases
- brief pain index (BPI) score, mean [4, 5]: decreased
- distance walked during a 12-minute walk test [4, 5]: increase the distance walked; also recorded: Improvements
- peak VO2 [4, 5]: trends towards increases
- tolerability ([4]; PMM subjects that participated in the study): well tolerated
